{"source": "patent US20100278849A1", "about": "“PROSTATIC ACID PHOSPHATASE ANTIGENS” (priority 2004, published 2010)", "key": {"HLA-A2*0201": {"target": "HLA-A2*0201 (Homo sapiens, UniProt P04439, D140Y/D185E/D98H/E176V/E277Q/G131W/G231S/I119V/I121R/I166T/I218V/L300P/L318F/N151K/N90K/P208A/P217A/Q86G/Q94H/R138H/R169H/T345S)", "type": "cell-based"}, "HLA-A2": {"target": "HLA-A2 (Homo sapiens, UniProt P04439, D140Y/D185E/D98H/E176V/E277Q/G131W/G231S/I119V/I121R/I166T/I218V/L300P/L318F/N151K/N90K/P208A/P217A/Q86G/Q94H/R138H/R169H/T345S)", "details": "earlier reports; cited from earlier work"}}, "note": "“Also recorded” adds a separate entry of the source."}
{"sequence": "ALDVYNGLL [PAP.299, reference compound]", "values": [{"measurement": "binding to HLA-A2 (T2 cells)", "setting": "HLA-A2*0201", "result": "no significant binding; also recorded: unable to confirm the strong HLA-A2 binding"}, {"measurement": "HLA-A2 binding previously described", "setting": "HLA-A2", "result": "strong HLA-A2 binding"}]}
